The values below come from patent publication US5723494A, “Derivatives of glutamic and aspartic acids, a method of preparing them, and their use as drugs for enhancing memory and learning” (priority 1993, dated 1998).

As a reminder, the IC50 is the concentration at which inhibition is half-maximal. Low readings indicate greater potency, high ones weaker potency.

The nature of experiment [1]: Antiamnesic activity in the mouse (step-down passive avoidance, amnesia induced by ECS). In kind it is in vivo, mouse (CD1 male). The following applies: mouse; for Antiamnesic activity (in words) / ED50: OS; for change in vivo at 0.1 mg/kg: 0.1 mg/kg OS; for change in vivo at 1 mg/kg: 1 mg/kg OS; for change in vivo at 3 mg/kg: 3 mg/kg OS; for change in vivo at 10 mg/kg: 10 mg/kg OS; for change in vivo at 30 mg/kg: 30 mg/kg OS; for ED50: 60 min before training, read-out: ID50 (antiamnesic activity, dose inhibiting the amnesic effect of the ECS by 50%). The source says: 1) Antiamnesic activity in the mouse (step-down passive avoidance)
An electroconvulsive shock (ECS) produces retrograde amnesia in the test animal if applied immediately after the training received, for example, a harmful stimulus of a suitable intensity.
The object of the experiment was to study the effects of the compounds of the invention in antagonizing the amnesic effect of an ECS on the short-term memory consolidation process.
CD1 male mice which weighed about 30-35 g, and had not fasted were used. The equipment used was a rectangular plexiglass cage (21×21×40cm) with an electrifiable grid floor and a wooden cube (4×4×4 cm) fixed in the centre of the cage. The animals were treated orally with the product under test 60 minutes before the training.
The mouse was placed delicately on the wooden cube and the time it took to descend to the grid floor (SDL=step-down latency) was measured. When all four of the animal's paws were resting on the floor the continuous 0.2 mA shock started and the time taken by The mouse to remount the wooden cube (EL=escape latency) was measured.
The animals with an SDL of between 3 and 30 sec and with an EL of between 3 and 60 sec were used for retesting.
Immediately afterwards, a transcorneal ECS was applied with the use of the following parameters: amperage 15 mA, frequency 50 Hz, duration of the train of pulses 0.4 sec. duration of each individual pulse 1 msec., interval between pulses 20 msec. As well as the groups treated with ECS, a control group without ECS and a control group with ECS were used.
The retest was carried out after 24 h.
The results are expressed as the percentage variation of the SDL of the treated groups in comparison with the control group by means of this formula: [formula]

Experiment [2] is described as follows: Memory-enhancement activity in the passive avoidance test in the rat. The class given is in vivo, rat (male Wistar). The following applies: rat; for change in vivo at 0.1 mg/kg / change in vivo at 1 mg/kg / change in vivo at 10 mg/kg: 96 h, 6 treatments, read-out: % variation vs controls (FS) in step through latency; for change in vivo at 0.1 mg/kg: 0.1 mg/kg IP; for change in vivo at 0.1 mg/kg / change in vivo at 1 mg/kg / change in vivo at 10 mg/kg / Activity in increasing the avoidance time (in words): retest on the 4th day; for change in vivo at 1 mg/kg: 1 mg/kg IP; for change in vivo at 10 mg/kg: 10 mg/kg IP; for ED30 / Activity in increasing the avoidance time (in words): IP; for ED30: read-out: ED30 (dose increasing the latency time (STL) by 30%). As to the method:
2) Memory-enhancement activity in the "passive avoidance" test in the rat
A "passive avoidance" model was used, which required a single "step-through" situation and a retest of the "retention memory" 72 h after the training.
Male Wistar rats which weighed about 200 g and had not fasted, were used. The test consisted of evaluating the degree of memory of an animal after it had been trained as follows.
The equipment used was a shuttle box modified thus: one compartment was lined with black card including the cover, and a 60 W lamp was disposed above the other, spaced from the grid floor by about 40 cm. The two compartments were divided by an automatic guillotine-like door. Each animal was placed in the compartment in the light with the guillotine-likedoor open. From this moment, the time taken by the rat to go into the compartment lined with black card (the dark compartment) (the step-throughlatency=STL) was measured. The animals which took more than 30 sec to go into the dark were discarded. Once they had gone into the dark, the door was lowered automatically and a=0.1 mA shock lasting 5 sec (a foot shock=FS) started. After 10 sec, the animal was removed from the shuttle box.
Upon completion, the animals were selected randomly in homogeneous groups and treated with the products.
The retest to determine memory was made after 72 hours. The products were administered chronically in the preselected manner twice per day and the last treatment 30 min before the retest (6 treatments altogether).
The memory-retention test (the retest) consisted of placing each animal, treated 30 min beforehand with a physiological solution or with the product, in the compartment which was not lined with black card for 30 sec.
The results are expressed as the percentage variation of the STL (in seconds) of the groups treated in comparison with the control group by means of this formula: [formula]

A short description of experiment [3]: Antidepressant activity in the behavioural despair test in the mouse. In kind it is in vivo, mouse (male CD1). The following applies: for inhibition in vivo at 1 mg/kg / inhibition in vivo at 3 mg/kg / inhibition in vivo at 10 mg/kg / inhibition in vivo at 30 mg/kg: 5 min, 5 minutes, read-out: Decrease in immobility (as %) vs the controls; for inhibition in vivo at 1 mg/kg: 1 mg/kg IP; for inhibition in vivo at 3 mg/kg: 3 mg/kg IP; for inhibition in vivo at 10 mg/kg: 10 mg/kg IP; for inhibition in vivo at 30 mg/kg: 30 mg/kg IP; for ED50: read-out: ED50 (dose antagonising immobility time by 50%). The text has this:
5) Antidepressant activity in the "behavioural despair test" Another interesting aspect of the pharmacological activity of these products is the potent antidepressant activity which some of them display in an experimental model in the mouse, in which a state of depression is induced experimentally by the method of Porsolt et al. (Arch. Int. Pharmacodyn. 229, p. 327-336 (1977)). Male CDl mice which weighed about 20-25 g and had not fasted were used. The test consisted of inducing a state of depression in the animal which was subjected to forced swimming in a glass cylinder from which it could not escape. After a short period of vigorous activity the mouse adopted a characteristic posture of immobility which was easily identifiable; this immobility is reduced by antidepressant drugs. 1 l glass beakers, filled to 700 ml with water at a temperature of 25° C. were used for the test. The mice, 8 per group, were treated intraperitoneally with the drug under test, 30 minutes before the test. At time 0, each animal was immersed in a beaker and, after one minute during which all moved about swimming vigorously in order to escape, regardless of treatment, the observer, who was unaware of the treatment, assigned the following points: 0=animal immobile 1=minimum movement to remain afloat 2=vigorous swimming The greater the antidepressant activity of the drug, the more the animals will move about in order to try to escape from the water. The points were assigned every 15 sec for a total period of 5 min with a total of 20 observations. The antidepressant activity was determined with the use of various doses of the compound by the regression method as the ED50, that is, the dose in mg/kg of the compound which could antagonise the animal's immobility time by 50%.

Experiment [4] has as its system excitor amino-acid receptors of cortical membranes ("forebrain") of rats. In words: Inhibition of the specific binding of [3H]-glutamate to rat forebrain membranes. As to conditions: for Activity in inhibiting the binding of glutamate (in words): rat cortical membranes; for IC50: rat forebrain membranes, 20 min, 37° C., pH 7.1. The source says:
6) Studies on binding to rat "forebrain" membranes
L-glutamate recognizes all three receptor subtypes indicated above, al though not selectively. It is therefore desirable to evaluate the capacity of each of the compounds of the invention to interact with the excitor amino-acid receptors of the CNS.
"Forebrain", that is, the cerebral cortex and the hippocampus, were selected as the receptor tissue and ^3 H-L-glutamate as the ligand for marking this heterogenous receptor population.
Rat cerebral tissue (forebrain without striated tissue) was therefore homogeneised cold in tris buffer at pH 7.4. After washing and centrifuging, the final pellet was resuspended in 50 volumes of tris HCl binding buffer at 7.1. 0.5 ml of receptor membrane thus obtained were then incubated, together with the radioactive tracer and the compounds under test, for 20 min at 37° C. The reaction was terminated by separating the bound radio-ligand from the free radio-ligand by filteration on glass-fibre filters which, after washing, were counted in a liquid scintillator (a β-counter) thus determining the radioactivity associated with the pellet. The specific binding was determined as the difference between the binding in the absence and in the presence of cold 3.6 mM L-glutamate.

Setting [5] is: po, retest 24 h after training, read-out: Reversal of the amnesia (% vs controls), as the increase in the Step Down Latency.

Consider `N[C@@H](CCC(=O)O)C(=O)NCCC12CC3CC(CC(C3)C1)C2` [Compound 16], for which, in experiment [1], the “Antiamnesic activity (in words)” value is recorded as “particularly remarkable”. In addition, in experiment [1] (setting [5]), the change in vivo at 0.1 mg/kg was determined as 0%, the change in vivo at 1 mg/kg was determined as 47%, the change in vivo at 3 mg/kg came out at 46% and the change in vivo at 10 mg/kg is 50%. Moreover, in experiment [1] (setting [5]), the change in vivo at 30 mg/kg worked out at 73%. Moreover, the ED50 in experiment [1] (po) was 4.6 mg/kg. In experiment [2], the change in vivo at 0.1 mg/kg amounted to 11%, the change in vivo at 1 mg/kg was found to be 21%, the change in vivo at 10 mg/kg was 57% and the ED30 worked out at 1 mg/kg. In experiment [2], the “Activity in increasing the avoidance time (in words)” value is “considerable activity in increasing the avoidance time”. For the same compound, in experiment [3], the inhibition in vivo at 1 mg/kg was 15%, the inhibition in vivo at 3 mg/kg worked out at 46%, the inhibition in vivo at 10 mg/kg was 77% and the inhibition in vivo at 30 mg/kg was 98%. Further, in experiment [3] (IP), the “Antidepressant activity (in words)” value is recorded as “antidepressant effect of the same order of magnitude as the comparison drug used, amitriptyline” and the ED50 turned out to be 3.9 mg/kg. Further, in experiment [4], the “Activity in inhibiting the binding of glutamate (in words)” value was “considerable activity in inhibiting the binding of the glutamate” and the IC50 was 15 µM.
For the compound `N[C@@H](CCC(=O)O)C(=O)NC1CCCCCC1` [Compound 20], in experiment [1] (setting [5]), the change in vivo at 3 mg/kg stood at 15%, the change in vivo at 10 mg/kg stood at 41% and the change in vivo at 30 mg/kg was 61%. The ED50 in experiment [1] (po) was found to be 17.3 mg/kg. In addition, in experiment [2], the change in vivo at 0.1 mg/kg is 7%, the change in vivo at 1 mg/kg amounted to 20%, the change in vivo at 10 mg/kg amounted to 36% and the ED30 is 4.2 mg/kg. For the same compound, the “Activity in increasing the avoidance time (in words)” value in experiment [2] was “considerable activity in increasing the avoidance time”. In addition, in experiment [3], the inhibition in vivo at 3 mg/kg was determined as 0%, the inhibition in vivo at 10 mg/kg was determined as 11% and the inhibition in vivo at 30 mg/kg came out at 52%. Also, in experiment [3] (IP), the ED50 came to 36.1 mg/kg. Also, in experiment [4], the “Activity in inhibiting the binding of glutamate (in words)” value is “considerable activity in inhibiting the binding of the glutamate” and the IC50 was 14.4 µM.
As to `N[C@@H](CC(=O)O)C(=O)NCCC12CC3CC(CC(C3)C1)C2` [Compound 43], the “Antiamnesic activity (in words)” value in experiment [1] was “less active”. Further, the change in vivo at 0.3 mg/kg in experiment [1] (po, 0.3 mg/kg OS, retest 24 h after training, read-out: Reversal of the amnesia (% vs controls), as the increase in the Step Down Latency) was 13%. Also, in experiment [1] (setting [5]), the change in vivo at 3 mg/kg worked out at 19% and the change in vivo at 30 mg/kg turned out to be 53%. Moreover, in experiment [1] (po), the ED50 was 38.3 mg/kg. Also, in experiment [2], the change in vivo at 0.1 mg/kg is 10%, the change in vivo at 1 mg/kg is 16%, the change in vivo at 10 mg/kg was 29% and the ED30 is 16.9 mg/kg. Moreover, in experiment [3], the inhibition in vivo at 1 mg/kg was 0%, the inhibition in vivo at 3 mg/kg is 34%, the inhibition in vivo at 10 mg/kg was 60% and the inhibition in vivo at 30 mg/kg was 93%. Further, in experiment [3] (IP), the “Antidepressant activity (in words)” value is given as “antidepressant effect of the same order of magnitude as the comparison drug used, amitriptyline” and the ED50 came to 6.4 mg/kg. The compound further returned an IC50 in experiment [4] of 33.5 µM.
As for `CC1(C)CCC(NC(=O)[C@H](N)CCC(=O)O)CC1` [Compound 24], the “Antiamnesic activity (in words)” value in experiment [1] is “completely inactive”. Moreover, in experiment [1] (setting [5]), the change in vivo at 0.1 mg/kg turned out to be 0%, the change in vivo at 1 mg/kg turned out to be 0% and the change in vivo at 10 mg/kg is 11%. For the same compound, in experiment [2], the change in vivo at 0.1 mg/kg came out at 8%, the change in vivo at 1 mg/kg turned out to be 0%, the change in vivo at 10 mg/kg worked out at 0% and the “Activity in increasing the avoidance time (in words)” value was “inactive”. Also, in experiment [3], the inhibition in vivo at 3 mg/kg worked out at 0%, the inhibition in vivo at 10 mg/kg stood at 16% and the inhibition in vivo at 30 mg/kg came out at 19%. In experiment [3] (IP), the “Antidepressant activity (in words)” value is “inactive” and the “ED50 (dose antagonising immobility time by 50%)” value is given as “Inactive”. Further, the 50% inhibitory concentration (IC50) in experiment [4] was more than 1000 µM.
